Among the data in ChEMBL document CHEMBL1130581, “Inhibition of nematode induced root damage by derivatives of methylenecyclopropane acetic acid” (1997) are inhibition and LC50 values, retold here.

Each structure is given as a SMILES string. Values after ≈ are worked out from the molar mass of the structure shown.

What all share (assay type): functional
For assay [1], the system named is Meloidogyne incognita. The assay can be described thus: Average percent inhibition of nematode pest Meloidogyne incognita induced root galling of treated sand medium at 7.8 ppm.
Assay [2] relates to Meloidogyne incognita. The assay can be described thus: Average percent inhibition of nematode pest Meloidogyne incognita induced root galling of treated soil medium at 0.5 ppm.
For assay [3], the system named is Meloidogyne incognita. The assay can be described thus: Average percent inhibition of nematode pest Meloidogyne incognita induced root galling of treated sand medium at 125 ppm.
The test system of assay [4] is Meloidogyne incognita. Nature of the assay: Average percent inhibition of nematode pest Meloidogyne incognita induced root galling of treated soil medium at 7.8 ppm.
The subject of assay [5] is Meloidogyne incognita. Nature of the assay: Average percent inhibition of nematode pest Meloidogyne incognita induced root galling of treated sand medium at 0.5 ppm.
The test system of assay [6] is Meloidogyne incognita. Nature of the assay: Average percent inhibition of nematode pest Meloidogyne incognita induced root galling of treated soil medium at 125 ppm.
For assay [7], the system named is Meloidogyne incognita. The assay can be described thus: Lethal concentration required for inhibition of nematode induced root galling of treated sand medium to that of untreated soil medium.

As usually defined, the inhibition is how much of the control response was suppressed. Turning to `C=C1CC1CCSC1=NCCS1` (stereo not drawn), the figures for the inhibition at 7.8 ppm in assay [1] and in assay [4] were 100% and 25%, respectively. The inhibition at 0.5 ppm came to 0% in assay [2] and 50% in assay [5]. In addition, the inhibition at 125 ppm in assay [3] and in assay [6] was 100% in each case.

For the molecule `C=C1CC1CC(=O)O` (stereo not drawn), the inhibition at 7.8 ppm in assay [1] is 100%; in assay [4], 15%. Further, the inhibition at 0.5 ppm was 0% in assay [2] and 90% in assay [5]. For the same molecule, the inhibition at 125 ppm in assay [3] is 100%; in assay [6] it was 80%.

As to `CC1CC1CC(=O)O` (stereo not drawn), the inhibition at 7.8 ppm in assay [1] came out at 100%; in assay [4], 0%. The inhibition at 0.5 ppm in assay [2] and in assay [5] was 0% in each case. Further, the inhibition at 125 ppm in assay [3] amounted to 100%; in assay [6], 0%.

Take `C=C1CC1CC(=O)OCc1cccc(Oc2ccccc2)c1` (stereo not drawn): the inhibition at 7.8 ppm is 100% in assay [1] and 0% in assay [4]. The figures for the inhibition at 0.5 ppm in assay [2] and in assay [5] were 0% and 50%, respectively. The inhibition at 125 ppm was 100% in assay [3] and 50% in assay [6].

With `C=C1CC1CCN` (stereo not drawn), the inhibition at 7.8 ppm in assay [1] was found to be 100%; in assay [4], 0%. Besides, the results for the inhibition at 0.5 ppm in assay [2] and in assay [5] were 0% and 25%, respectively. Moreover, the inhibition at 125 ppm in assay [3] worked out at 100%; in assay [6], 75%.

Take `C=C1C(CC(=O)OCc2cccc(Oc3ccccc3)c2)C1(F)F` (stereo not drawn): testing at 0.5 ppm in assay [2] gave an inhibition of 0%. Also, the inhibition at 7.8 ppm in assay [4] worked out at 0%. In addition, the inhibition at 125 ppm in assay [6] is 25%.

Regarding `C=C1CC1CCOC(=O)c1ccc(OCC)cc1` (stereo not drawn), the inhibition at 7.8 ppm is 100% in assay [1] and 0% in assay [4]. The inhibition at 0.5 ppm was determined as 0% in assay [2] and 100% in assay [5]. For the same molecule, the inhibition at 125 ppm in assay [3] and in assay [6] was 100% each time.

In assay [2], `C=C1C(CC(=O)OCCCCCCCCCCCCCCCC)C1(F)F` (stereo not drawn) yielded an inhibition at 0.5 ppm of 0%. In assay [4], this molecule came in with an inhibition at 7.8 ppm of 0%. Also, in assay [6], the inhibition at 125 ppm turned out to be 0%.

Consider `C=C1CC1CC(N)=O` (stereo not drawn), for which the inhibition at 7.8 ppm in assay [1] turned out to be 100%; in assay [4] it was 0%. The inhibition at 0.5 ppm in assay [2] and in assay [5] was 0% throughout. Moreover, the inhibition at 125 ppm in assay [3] and in assay [6] was 100% each time.

On to `C=C1CC1CC(=O)OCCCCCCCCCCCCCCCC` (stereo not drawn), for which the inhibition at 7.8 ppm was determined as 100% in assay [1] and 50% in assay [4]. Further, the values for the inhibition at 0.5 ppm in assay [2] and in assay [5] were 0% and 100%, respectively. For the same molecule, the inhibition at 125 ppm in assay [3] and in assay [6] was 100% throughout.

For the molecule `C=C1C(CC(=O)O)C1(F)F` (stereo not drawn), the inhibition at 0.5 ppm in assay [2] was 0%. Testing at 7.8 ppm in assay [4] gave an inhibition of 0%. For the same molecule, at 125 ppm the inhibition in assay [6] was 100%.

The term LC50 denotes the concentration lethal to half of the exposed cells or organisms. A high value points to lower toxicity. As to `CNC(=O)O/N=C/C(C)(C)SC` [ALDICARB], the LC50 in assay [7] was 3.8 µg/mL (≈ 20 µM).
